# Test results as given in patent US5130119A, “Method of using fluorosubstituted benzene derivatives in F-NMR imaging” (Schering Aktiengesellschaft, priority 1988, dated 1992).
# Values joined by “and” are separate entries in the source; they are usually repeats but may differ in a detail not shown here. Equal entries are not always repeated.
# Legend:
# [1] = intravenous acute tolerability (LD50) on the mouse; settings: in vivo
# Method: Thus, for example, an intravenous acute tolerability (LD50) of 4 mmol/kg of body weight was determined on the mouse for 5-[N-(4-fluoro-2-trifluoromethylphenyl)sulfamoyl)-isophthalic acid (Example 13).
# [2] = tested on: rat (whole animal; bladder area); assay: in vivo 19F NMR spectroscopic pH determination; parameters: species or system female rats of the Wistar-Han-Schering strain (SPF); settings: 0.5 mmol/kg i.v.
# Method: Performance of in vivo ^19 F NMR spectroscopic pH determinations with 5-[N-(4-fluoro-2-trifluoromethylphenyl)sulfamoyl]-isophthalic acid (Example 13)
# An aqueous solution of the fluorocompound is produced with a concentration of 0.4 mol/1. The pH of the aqueous solution is adjusted with NaOH to 7.2.
# The NMR spectra are measured with an animal experimental nuclear spin tomograph (General Electric), which operates with a field strength of 2 tesla (corresponds to an RF resonance frequency of 80.5 MHz). The signals can be picked up by the whole-body coil (animal size) or surface coils.
# The experiments are performed with female rats of the Wistar-Han-Schering strain (SPF) with a body weight of 200 g. The animal is anesthetized by an intramuscular injection of Rompun/Ketavet (1:1, 1 ml/kg of body weight). Then a butterfly needle is placed in the animal in one of the tail veins. The animal is placed in a whole-body coil and the latter is tuned to the fluororesonance frequency. The spectrum of the entire animal is developed with this coil, i.e., no volume-selective spectroscopy is performed.
# The fluorinated compound is applied intravenously within 30 seconds in a dose of 0.5 mmol/kg and an F spectrum is registered within 4 minutes.
# After measurement of the total animal, the animal was removed from the coil and positioned on a surface coil so that the bladder area was picked up by the coil. […] The intense signals originate from the fluorocompound in the bladder. The chemical shift in the aromatic range is identical with the deep-field signal of the aromatic range in FIG. 2.
# [3] = tested on: kidney, bladder and ureter; assay: 19F imaging; format: in vivo, rat
# From the text: FIG. 4 relates to Example 50 and is the projection ^19 F image of the kidney, bladder, and ureters of a rat administered 0.75 mmol/kg of 5-[N-4-fluoro-2-trifluoromethylphenyl)sulfamoyl] isophthalic acid and 0.2 mmol/kg GdDTPA.
# Production of the solution of the fluorinated substance as well as preparation of the animal take place as in taking the ^19 F NMR spectra.
# The test animal is placed in the measuring coil and the fluorinated compound is applied in a dose of 0.75 mmol/kg of body weight by the tail vein in 1 minute. Then an intravenous application takes place, also by needle in the tail vein, of GdDTPA in a dose of 0.2 mmol/kg. Making of the image takes place with a projection spin echo sequence and the parameters: TR=28 msec (repetition rate), TE=4 msec (echo time), NEX=256 (number of averagings); the total measuring time is 15 minutes.
smiles,measurement,setting,value
"O=C(O)c1cc(C(=O)O)cc(S(=O)(=O)Nc2ccc(F)cc2C(F)(F)F)c1 [Example 13, 5-[N-(4-fluoro-2-trifluoromethylphenyl)sulfamoyl]-isophthalic acid]",LD50,[1],4000 µmol/kg
same,pH calculated from the chemical shifts (2 environments),"[2]; 5 minutes after application, whole rat, 2 tesla, CF3 reference signal",6.5 and 7.7
same,19F signal from the alkaline range,[2]; 50 minutes after application,almost disappeared
same,19F signal in the acid range,[2]; 50 minutes after application,split into several signals
same,location of lowest pH in the animal,"[2]; bladder area, surface coil, 20 minutes measuring time",the lowest (most acid) pH is in the bladder
same,excretion,"[2]; bladder area, surface coil, 70 minutes after application, 20 minutes measuring time",renally excreted
same,distribution at the beginning of the experiment,[2]; whole rat,found only in the blood
same,distribution 50 minutes after application,"[2]; whole rat, 50 minutes",distributed extravascularly
same,excretion (imaging),[3]; 0.75 mmol/kg i.v. plus GdDTPA 0.2 mmol/kg,renally excreted
same,19F image,"[3]; 0.75 mmol/kg i.v. plus GdDTPA 0.2 mmol/kg i.v., projection spin echo, 15 minutes","shows the kidney, bladder and ureter"
same,"F concentration in kidney, bladder and ureter","[3]; 0.75 mmol/kg i.v., reabsorption of water in these areas",high F concentration
